Values of other authors, collected in patent publication US20200281877A1, “METHOD FOR PREVENTION AND TREATMENT OF ACNE, ECZEMA, PSORIASIS, AND RELATED DERMATOLOGICAL CONDITIONS WITH COMPOSITION COMPRISING A SPHINGOLIPID AND SULPHUR COMPOUNDS” (priority 2018, published 2020).

System: SA_SCD (sphingolipid ceramide N-deacylase)

hydrolytic activity of SA_SCD (optimal pH 6.0): strongly inhibited | synthetic activity of SA_SCD (optimal pH 7.5): strongly inhibited
SMILES: [Zn+2] [bivalent zinc (Zn^2+)]
